Laboratory results taken from patent publication US9062026B2, “Fused pyrimidines and substituted quinazolines as inhibitors of p97” (Cleave Biosciences, Inc., priority 2012, dated 2015).

Experiments:
p97 = p97 (Homo sapiens (Human), UniProt P55072); experiment: P97 ATPase biochem assay (ADP Glo); format: biochemical; conditions: read-out: p97 IC50
Description: The ATPase assay is performed according the following protocol: Purified enzyme (20 nM p97), substrate (20 μM ATP) and a dose titration of compounds are mixed in buffer (50 mM TRIS pH 7.5, 20 mM MgCl2, 0.02% TX-100, 1 mM DTT, 0.2% (v/v) glycerol) and incubated at 37° C. for 15 minutes. The reaction is terminated and the level of product generated is measured using the ADP Glo Assay Kit (Promega, Madison Wis.). Plotting product generated versus compound concentration and using a four-parameter fit model generates an IC50 value for each compounds.

A549 K48 = A549 K48 cell intensity (lysine-48 poly-ubiquitin accumulation, immunofluorescence); format: cell-based; conditions: Homo sapiens
Description: Image-analysis is used to generate quantitative data from these assays that can be fit to a four-parameter sigmoid curve to derive IC50 values. Substrates of the ubiquitin-proteasome system, such as p53, are monitored after tumor cell lines are incubated with compounds for several hours. Accumulation of these proteins indicates an inhibition of proteasome-mediated degradation. Accumulation of lysine-48 chain linkage of poly-ubiquitin is also monitored by immunofluorescence as an indicator of ubiquitin-proteasome system inhibition. Both LC3 and SQSTM1 are mediators of autophagy. The localization and amounts of these proteins are monitored by immunofluorescence and report on the activity and inhibition of autophagy in response to p97 inhibition.

Sequence of p97 (P55072 whole entry): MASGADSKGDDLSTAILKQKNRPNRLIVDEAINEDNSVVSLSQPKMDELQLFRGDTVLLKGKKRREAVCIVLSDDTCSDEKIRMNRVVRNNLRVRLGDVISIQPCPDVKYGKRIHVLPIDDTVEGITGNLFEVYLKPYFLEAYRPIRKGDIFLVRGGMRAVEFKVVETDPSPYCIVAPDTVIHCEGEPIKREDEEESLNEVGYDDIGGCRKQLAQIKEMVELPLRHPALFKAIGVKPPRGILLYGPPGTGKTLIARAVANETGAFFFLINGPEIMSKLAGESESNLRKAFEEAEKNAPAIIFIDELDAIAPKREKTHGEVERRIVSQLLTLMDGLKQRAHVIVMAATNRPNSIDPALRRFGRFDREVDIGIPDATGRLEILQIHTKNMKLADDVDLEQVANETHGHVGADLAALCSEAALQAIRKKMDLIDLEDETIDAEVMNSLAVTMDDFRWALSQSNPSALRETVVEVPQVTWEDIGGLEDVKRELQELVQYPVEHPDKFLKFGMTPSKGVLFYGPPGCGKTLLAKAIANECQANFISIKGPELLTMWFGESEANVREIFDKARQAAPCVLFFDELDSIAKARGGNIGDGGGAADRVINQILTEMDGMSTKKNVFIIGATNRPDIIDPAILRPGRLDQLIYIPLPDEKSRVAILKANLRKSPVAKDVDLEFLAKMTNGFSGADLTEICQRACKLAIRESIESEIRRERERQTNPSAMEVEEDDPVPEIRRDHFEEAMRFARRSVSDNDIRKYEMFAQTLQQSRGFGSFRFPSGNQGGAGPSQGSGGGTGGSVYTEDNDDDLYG

| IC50 (p97) [µM] | IC50 (A549 K48) [µM] | Structure (SMILES) |
| --- | --- | --- |
| < 0.03 | < 10 | COc1cc2ccccc2n1-c1nc2c(c(NCc3ccccc3)n1)CCCC2 [N-benzyl-2-(2-methoxy-1H-indol-1-yl)-5,6,7,8-tetrahydroquinazolin-4-amine] |
| < 0.1 | < 10 | COCCOc1cccc2c(NCc3ccccc3)nc(-n3c(CO)cc4ccccc43)nc12 [{1-[4-(benzylamino)-8-(2-methoxyethoxy)quinazolin-2-yl]-1H-indol-2-yl}methanol] |
| < 0.3 | < 10 | COc1cccc2c(NCc3ccccc3)nc(-n3c(/C=C/S(C)(=O)=O)cc4ccccc43)nc12 [N-benzyl-2-{2-[(E)-2-methanesulfonylethenyl]-1H-indol-1-yl}-8-methoxyquinazolin-4-amine] |
| < 0.1 | < 10 | OCc1cc2ccccc2n1-c1nc2c(c(NCc3ccccc3)n1)CCCC2 [{1-[4-(benzylamino)-5,6,7,8-tetrahydroquinazolin-2-yl]-1H-indol-2-yl}methanol] |
| < 0.03 | < 10 | COc1cc2c(C(N)=O)cccc2n1-c1nc2c(c(NCc3ccccc3)n1)COCC2 [1-[4-(benzylamino)-5H,7H,8H-pyrano[4,3-d]pyrimidin-2-yl]-2-methoxy-1H-indole-4-carboxamide] |
| < 0.1 | < 10 | COCCOc1cccc2c(NCc3ccccc3)nc(-n3c(C)cc4ccccc43)nc12 [N-benzyl-8-(2-methoxyethoxy)-2-(2-methyl-1H-indol-1-yl)quinazolin-4-amine] |
| < 0.1 | < 10 | Clc1cc2ccccc2n1-c1nc2c(c(NCc3ccccc3)n1)CCCC2 [N-benzyl-2-(2-chloro-1H-indol-1-yl)-5,6,7,8-tetrahydroquinazolin-4-amine] |
| < 0.1 | < 10 | COc1cc2c(C#N)cccc2n1-c1nc2c(c(NCc3ccccc3)n1)COCC2 [1-[4-(benzylamino)-5H,7H,8H-pyrano[4,3-d]pyrimidin-2-yl]-2-methoxy-1H-indole-4-carbonitrile] |
| < 0.1 | < 10 | NC(=O)NCc1cc2ccccc2n1-c1nc2c(c(NCc3ccccc3)n1)CCCC2 [({1-[4-(benzylamino)-5,6,7,8-tetrahydroquinazolin-2-yl]-1H-indol-2-yl}methyl)urea] |
| < 0.1 | < 10 | Cc1cc2c(C(N)=O)cccc2n1-c1nc2c(c(NCc3ccccc3)n1)CNCC2 [1-[4-(benzylamino)-5H,6H,7H,8H-pyrido[4,3-d]pyrimidin-2-yl]-2-methyl-1H-indole-4-carboxamide] |
| < 0.3 | < 10 | CS(=O)(=O)NCc1cc2ccccc2n1-c1nc2c(c(NCc3ccccc3)n1)CCCC2 [N-({1-[4-(benzylamino)-5,6,7,8-tetrahydroquinazolin-2-yl]-1H-indol-2-yl}methyl)methanesulfonamide] |
| < 0.1 | < 10 | COc1cccc2c(NCc3ccccc3)nc(-n3c(OC)cc4ccccc43)nc12 [N-benzyl-8-methoxy-2-(2-methoxy-1H-indol-1-yl)quinazolin-4-amine] |
